Measured values from ChEMBL document CHEMBL1129655, “A comparative molecular field analysis study of N-benzylpiperidines as acetylcholinesterase inhibitors” (J Med Chem, 1996).

Target: T1, Acetylcholinesterase (Mus musculus, UniProt P21836)
T1 sequence (P21836 whole entry): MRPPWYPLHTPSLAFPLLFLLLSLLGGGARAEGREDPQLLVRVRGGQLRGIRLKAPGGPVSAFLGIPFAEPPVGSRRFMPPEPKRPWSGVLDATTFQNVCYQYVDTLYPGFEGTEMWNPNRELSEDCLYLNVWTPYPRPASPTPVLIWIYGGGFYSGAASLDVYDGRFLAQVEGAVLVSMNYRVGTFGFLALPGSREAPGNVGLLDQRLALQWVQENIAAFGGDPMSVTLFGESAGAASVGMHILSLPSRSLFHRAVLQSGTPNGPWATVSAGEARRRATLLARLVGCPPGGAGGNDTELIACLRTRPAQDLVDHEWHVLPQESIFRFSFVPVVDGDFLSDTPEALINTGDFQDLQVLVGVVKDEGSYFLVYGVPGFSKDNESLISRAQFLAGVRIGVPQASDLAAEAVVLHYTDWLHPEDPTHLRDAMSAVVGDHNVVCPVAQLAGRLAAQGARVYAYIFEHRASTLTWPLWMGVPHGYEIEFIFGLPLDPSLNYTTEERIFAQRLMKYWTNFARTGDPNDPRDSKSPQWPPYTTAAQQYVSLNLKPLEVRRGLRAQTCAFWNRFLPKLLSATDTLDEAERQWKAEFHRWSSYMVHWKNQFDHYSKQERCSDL
Description: Inhibition against Acetylcholinesterase (AChE)

**Q.** Which IC50 does the source give for `O=C(NCCC1CCN(CCc2ccccc2)CC1)c1ccccc1` here?
**A.** Its IC50 is 13 µM.
